Laboratory results published in patent US20220047616A1, “Method and Compositions for Treating HTLV-1 Virus Infection” (priority 2019, published 2022).

What was measured:
[1] = test system: HEP C; details: reported; cited from earlier work
[2] = test system: HIV-1; details: reported; cited from earlier work
[3] = target: HCV H strain NS5B (Hepatitis C virus genotype 1a, UniProt P27958); details: reported; cited from earlier work
[4] = test system: ENTV EV71; details: reported; cited from earlier work
[5] = test system: HSV-2; details: reported; cited from earlier work
[6] = test system: ENTV CVB1; details: reported; cited from earlier work
[7] = test system: HSV-1; details: reported; cited from earlier work
[8] = test system: ADV-11; details: reported; cited from earlier work
[9] = test system: HEP B; details: reported; cited from earlier work
[10] = test system: ADV-8; details: reported; cited from earlier work
[11] = test system: ADV-3; details: reported; cited from earlier work
[12] = test system: Vero E6 cells
[13] = test system: Dengue virus; details: Cheung et al. 2014; cited from earlier work
[14] = test system: rhinovirus; assay: Antiviral activity against rhinovirus infection; details: concentrations and assays employed herein
[15] = test system: ZIKV (PLCal_ZV strain); assay: Protection of ZIKV-induced cytopathic effect (CPE) with Neutral Red readout; type: cell-based, Zikavirus; details: CPE-based assay, Vero cells, 6 days
Description: (§1) A CPE-based antiviral assay was performed by infecting target cells in the presence or absence of test compositions, at a range of concentrations. […] cytopathic effects and cell death. […] For CPE-based assays, cell viability was determined with a neutral red readout. Viable cells incorporate neutral red in their lysosomes. Uptake of neutral red relies on the ability of live cells to maintain a lower pH inside their lysosomes than in the cytoplasm, and this active process requires ATP. Once inside the lysosome, the neutral red dye becomes charged and is retained intracellularly. […] The amount of neutral red in solution was quantified by reading the absorbance (optical density) of each well at 490 nm […]
(§2) Cytotoxic effects were evaluated in uninfected cells by comparing viability in the presence of inhibitors to the viability of mock-treated cells. Cytotoxicity was determined by an XTT viability assay, which was conducted at the same timepoint as the readout for the corresponding infection assay.
(§3) Test compositions were dissolved in 100% methanol. […] When possible, the EC50 and CC50 of the composition was determined for each assay using GraphPad Prism software. […]
Protection of ZIKV-induced cytopathic effect (CPE) with Neutral Red readout: For the ZIKV antiviral assay, the PLCal_ZV strain was used. […]

[16] = test system: DENV2 (08-10381 Montserrat strain); assay: Protection of DENV2-induced cytopathic effect (CPE) with Neutral Red readout; type: cell-based, Dengue virus; details: CPE-based assay, Vero cells, 7 days
Description: as §1, §2, §3
Protection of DENV2-induced cytopathic effect (CPE) with Neutral Red readout: For the DENV2 antiviral assay, the 08-10381 Montserrat strain was used. […]

[17] = test system: Marburgvirus (MARV/Ci67); type: cell-based; details: compositions added to cells, then virus, 1 hr; FIGS. 3-4
[18] = test system: Ebolavirus (EBOV/Kik); type: cell-based; details: compositions added to cells, then virus, 1 hr; FIGS. 1-2
[19] = test system: HTLV-1; assay: HTLV-1 transmission in SLB1/huPBMC co-culture (p19Gag ELISA); type: cell-based; details: SLB1 pre-treated 15 min or 3 hrs, co-culture 72 hrs
[20] = test system: HTLV-1; assay: HTLV-1 replication and release of p19Gag-containing particles from SLB1 cells (Anti-HTLV-1 p19Gag ELISA); type: cell-based; details: SLB1 cells, 10, 50, 100 μg/ml, 72 hrs
[21] = test system: HTLV-1; assay: Virological synapse formation and HTLV-1 transmission in co-culture (fluorescence microscopy, gp21-positive huPBMCs); type: cell-based; details: SLB1/pLenti-GFP pre-treated 3 hrs, 10, 50, 100 μg/ml
[22] = test system: HTLV-1; assay: Infectivity of HTLV-1 particles from treated SLB1 cells on primary huPBMCs (p19Gag ELISA); type: cell-based; details: lowest concentration 10 μg/ml, relative to vehicle control
[23] = test system: HTLV-1+ SLB1 lymphoma T-cell-line; assay: Cytotoxicity/apoptosis in HTLV-1+ SLB1 lymphoma T-cells (Annexin V-FITC/PI); details: 72 hrs
[24] = test system: HIV-1; details: cited from earlier work

Chain of HCV H strain NS5B (P27958 2421-3011): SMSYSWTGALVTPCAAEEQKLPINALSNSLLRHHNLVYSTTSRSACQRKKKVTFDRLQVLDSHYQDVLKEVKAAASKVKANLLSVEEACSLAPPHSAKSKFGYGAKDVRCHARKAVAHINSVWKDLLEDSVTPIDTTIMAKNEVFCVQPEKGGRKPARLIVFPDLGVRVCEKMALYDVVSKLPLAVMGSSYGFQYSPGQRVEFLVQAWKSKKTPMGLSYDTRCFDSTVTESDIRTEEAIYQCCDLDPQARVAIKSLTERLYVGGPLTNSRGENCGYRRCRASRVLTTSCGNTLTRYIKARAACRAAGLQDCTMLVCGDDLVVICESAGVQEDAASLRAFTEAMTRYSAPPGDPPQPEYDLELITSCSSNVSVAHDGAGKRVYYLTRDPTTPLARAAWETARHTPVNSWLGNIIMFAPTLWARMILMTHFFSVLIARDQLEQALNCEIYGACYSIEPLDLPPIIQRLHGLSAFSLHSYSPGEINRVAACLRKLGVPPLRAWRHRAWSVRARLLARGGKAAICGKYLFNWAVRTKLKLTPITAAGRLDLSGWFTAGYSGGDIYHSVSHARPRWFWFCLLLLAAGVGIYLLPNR

For `CC1(C)CC[C@]2(C(=O)O)CC[C@]3(C)C(=CC[C@@H]4[C@@]5(C)CC[C@H](O)C(C)(C)[C@@H]5CC[C@]43C)[C@@H]2C1` [Oleanolic acid, oleanolic acid], the “anti-viral activity against HEP C” value [1] is given as “some anti-viral activity”, the “anti-viral activity against HIV-1” value [2] is given as “some anti-viral activity” and the “anti-viral activity against HCV H strain NS5B” value [3] is given as “some anti-viral activity”.

For `C[C@H]1[C@H](C)CC[C@]2(C(=O)O)CC[C@]3(C)C(=CC[C@@H]4[C@@]5(C)CC[C@H](O)C(C)(C)[C@@H]5CC[C@]43C)[C@H]12` [Ursolic acid, ursolic acid], the “anti-viral activity against HEP C” value [1] is given as “some anti-viral activity”, the “anti-viral activity against ENTV EV71” value [4] is given as “some anti-viral activity” and the “anti-viral activity against HSV-2” value [5] is given as “some anti-viral activity”. For the same compound, the “anti-viral activity against HIV-1” value [2] was “some anti-viral activity”, the “anti-viral activity against ENTV CVB1” value [6] was “some anti-viral activity” and the “anti-viral activity against HSV-1” value [7] was “some anti-viral activity”. The “anti-viral activity against ADV-11” value [8] was “some anti-viral activity”, the “anti-viral activity against HEP B” value [9] was “some anti-viral activity” and the “anti-viral activity against ADV-8” value [10] was “some anti-viral activity”. The “anti-viral activity against HCV H strain NS5B” value [3] was “some anti-viral activity” and the “anti-viral activity against ADV-3” value [11] was “some anti-viral activity”.

With `C[C@H]1O[C@@H](O[C@H]2[C@@H](O)C[C@H](O[C@H]3[C@@H](O)C[C@H](O[C@H]4CC[C@@]5(C)[C@H](CC[C@@H]6[C@@H]5C[C@@H](O)[C@]5(C)[C@@H](C7=CC(=O)OC7)CC[C@]65O)C4)O[C@@H]3C)O[C@@H]2C)C[C@H](O)[C@@H]1O` [digoxin, reference compound] the “cellular viability of Vero E6 cells” value [12] was “did not reduce cellular viability”.

For `CC(=O)O[C@H]1C[C@H](O[C@H]2[C@@H](O)C[C@H](O[C@H]3[C@@H](O)C[C@H](O[C@H]4CC[C@@]5(C)[C@H](CC[C@@H]6[C@@H]5C[C@@H](O)[C@]5(C)[C@@H](C7=CC(=O)OC7)CC[C@]65O)C4)O[C@@H]3C)O[C@@H]2C)O[C@H](C)[C@H]1O[C@@H]1O[C@H](CO)[C@@H](O)[C@H](O)[C@H]1O` [lanatoside C], the “antiviral activity against Dengue virus” value [13] is listed as “demonstrates antiviral activity”.

In the case of `CO[C@H]1C[C@H](O[C@H]2CC[C@@]3(C)[C@H](CC[C@@H]4[C@@H]3CC[C@]3(C)[C@@H](C5=CC(=O)OC5)[C@@H](OC(C)=O)C[C@]43O)C2)O[C@@H](C)[C@@H]1O` [oleandrin], the “activity against rhinovirus (viral replication)” value [14] is reported as “inactive”, the “efficacy against Zikavirus” value [15] is reported as “demonstrates efficacy” and the “efficacy against Dengue virus” value [16] is reported as “demonstrates efficacy”. For the same compound, the “anti-viral activity against HIV-1” value [2] was “demonstrated anti-HIV activity”, the “efficacy against Marburgvirus (dose response, based on oleandrin content)” value [17] was “efficacious” and the “efficacy against Ebolavirus (dose response, based on oleandrin content)” value [18] was “efficacious”. For the same compound, the “cellular viability of Vero E6 cells” value [12] was “did not reduce cellular viability”, the “transmission of HTLV-1 in co-culture (extracellular p19Gag)” value [19] was “inhibited the transmission of HTLV-1 as compared to the vehicle control” and the “HTLV-1 replication / release of p19Gag-containing virus particles” value [20] was “does not significantly inhibit”. The “formation of virological synapses and transmission of HTLV-1” value [21] was “inhibited the formation of virological synapses and the transmission of HTLV-1 in vitro”, the “infectivity of newly-synthesized p19Gag-containing virus particles on huPBMCs” value [22] was “inhibited the infectivity” and the “cytotoxicity/apoptosis in SLB1 cells at the lowest concentration” value ([23]; 10 μg/ml) was “did not induce significant cytotoxicity/apoptosis”. The “cytotoxicity in SLB1 cells compared with Vehicle control” value [23] was “not significantly higher than the Vehicle control”, the “HIV-1 viral infectivity in vitro” value [24] was “inhibit viral infectivity in vitro” and the “incorporation of gp120 envelope glycoprotein of HIV-1 into mature virus particles” value [24] was “prevent the incorporation”.
